Test results reported in patent US8119563B2, “N-substituted azacycles” (FMC Corporation, priority 2003, dated 2012).

System: tobacco budworm (Heliothis virescens [Fabricius])
Experiment: surface-treated diet test, insecticidal activity against tobacco budworm
Type: in vivo
Conditions: 0.25 millimoles of candidate insecticide on the surface of the diet, second instar larvae, five-day exposure; for Percent Mortality: compared to total number of insects infested; for Percent Growth Inhibition: inhibition of insect weight relative to untreated controls
Outline: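 Wheat germ artificial diet surface-treated with compound from 50 mM DMSO stock diluted 1:7 in 1:1 water/acetone (0.25 millimolar on diet), or lower-rate dilutions; DMSO-only controls. One second-instar larva per well, 25° C, 60% RH, 14 h light, five days; percent weight inhibition versus untreated and percent mortality scored.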

SMILES: NC(=O)CON=Cc1ccc(C[N+]2(O)CCC(O)(C(c3ccc(OC(F)(F)F)cc3)c3ccc(OC(F)(F)F)cc3)CC2)cc1.O=C(O)CC(O)(CC(=O)O)C(=O)[O-] (stereo not shown) [Compound 489]
- Percent Mortality: 100%
- Percent Growth Inhibition: 100%

SMILES: CC1(C)[C@@H]2CCC1(CS(=O)(=O)[O-])C(=O)C2.CCON=Cc1ccc(C[N+]2(O)CCC(O)(C(c3ccc(OC(F)(F)F)cc3)c3ccc(OC(F)(F)F)cc3)CC2)cc1 (stereo not shown) [Compound 490]
- Percent Mortality: 100%
- Percent Growth Inhibition: 100%

SMILES: CCON=Cc1ccc(C[N+]2(O)CCC(O)(C(c3ccc(OC(F)(F)F)cc3)c3ccc(OC(F)(F)F)cc3)CC2)cc1.CCS(=O)(=O)[O-] (stereo not shown) [Compound 491]
- Percent Mortality: 100%
- Percent Growth Inhibition: 100%

SMILES: O=C(O)CC(O)(CC(=O)O)C(=O)[O-].OC1(C(c2ccc(OC(F)(F)F)cc2)c2ccc(OC(F)(F)F)cc2)CC[N+](O)(Cc2ccc(Oc3ccc(Cl)nn3)cc2)CC1 (stereo not shown) [Compound 492]
- Percent Mortality: 100%
- Percent Growth Inhibition: 100%

SMILES: CCON=Cc1ccc(C[N+]2(O)CCC(O)(C(c3ccc(OC(F)(F)F)cc3)c3ccc(OC(F)(F)F)cc3)CC2)cc1.O=C([O-])C1CCCCC1 (stereo not shown) [Compound 493]
- Percent Mortality: 100%
- Percent Growth Inhibition: 100%

SMILES: CCON=Cc1ccc(C[N+]2(O)CCC(O)(C(c3ccc(OC(F)(F)F)cc3)c3ccc(OC(F)(F)F)cc3)CC2)cc1.O=C(O)CC(O)(CC(=O)O)C(=O)[O-] (stereo not shown) [Compound 494]
- Percent Mortality: 100%
- Percent Growth Inhibition: 100%

SMILES: CCON=Cc1ccc(C[N+]2(O)CCC(O)(C(c3ccc(OC(F)(F)F)cc3)c3ccc(OC(F)(F)F)cc3)CC2)cc1.O=S(=O)([O-])C(F)(F)C(F)(F)C(F)(F)C(F)(F)C(F)(F)C(F)(F)C(F)(F)C(F)(F)F (stereo not shown) [Compound 495]
- Percent Mortality: 100%
- Percent Growth Inhibition: 100%

SMILES: O=S(=O)([O-])C(F)(F)C(F)(F)C(F)(F)C(F)(F)C(F)(F)C(F)(F)C(F)(F)C(F)(F)F.OC1(C(c2ccc(OC(F)(F)F)cc2)c2ccc(OC(F)(F)F)cc2)CC[N+](O)(Cc2ccc(Oc3ccccn3)cc2)CC1 (stereo not shown) [Compound 496]
- Percent Mortality: 100%
- Percent Growth Inhibition: 100%

SMILES: OC1(C(c2ccc(OC(F)(F)F)cc2)c2ccc(OC(F)(F)F)cc2)CC[N+](O)(Cc2ccc(Oc3ccccn3)cc2)CC1.[Cl-] (stereo not shown) [Compound 497]
- Percent Mortality: 100%
- Percent Growth Inhibition: 100%

SMILES: CC1(C)[C@H]2CCC1(CS(=O)(=O)[O-])C(=O)C2.OC1(C(c2ccc(OC(F)(F)F)cc2)c2ccc(OC(F)(F)F)cc2)CC[N+](O)(Cc2ccc(Oc3ccccn3)cc2)CC1 (stereo not shown) [Compound 498]
- Percent Mortality: 100%
- Percent Growth Inhibition: 100%

SMILES: CCCCC(CC)C(=O)[O-].OC1(C(c2ccc(OC(F)(F)F)cc2)c2ccc(OC(F)(F)F)cc2)CC[N+](O)(Cc2ccc(Oc3ccccn3)cc2)CC1 (stereo not shown) [Compound 499]
- Percent Mortality: 100%
- Percent Growth Inhibition: 100%

SMILES: O=S(=O)([O-])CCCO.OC1(C(c2ccc(OC(F)(F)F)cc2)c2ccc(OC(F)(F)F)cc2)CC[N+](O)(Cc2ccc(Oc3ccccn3)cc2)CC1 (stereo not shown) [Compound 500]
- Percent Mortality: 100%
- Percent Growth Inhibition: 100%

SMILES: CON=C(Cl)c1ccc(C[N+]2(O)CCC(O)(C(c3ccc(OC(F)(F)F)cc3)c3ccc(OC(F)(F)F)cc3)CC2)cc1.O=C(O)CC(O)(CC(=O)O)C(=O)[O-] (stereo not shown) [Compound 501]
- Percent Mortality: 100%
- Percent Growth Inhibition: 100%

SMILES: O=C([O-])C1CCCCC1.OC1(C(c2ccc(OC(F)(F)F)cc2)c2ccc(OC(F)(F)F)cc2)CC[N+](O)(Cc2ccc(Oc3ccccn3)cc2)CC1 (stereo not shown) [Compound 502]
- Percent Mortality: 100%
- Percent Growth Inhibition: 100%
